Read-outs that look alike come from different tables or passages of the source.

Data set [1] is described as follows: Stability over shelf life (statement in words). The settings on record: over the shelf life period.
Data set [2] can be described thus: Hygroscopic nature of the solid. The format is physicochemical.
Data set [3] is described as follows: Tapped bulk density. The format is physicochemical.
Data set [4] can be described thus: Stability at 25 ± 2° C. & 60 ± 5% RH. Format: physicochemical. The settings on record: for Assay: in % (unit assumed). Here is the method:
(§1) In still another embodiment of the present invention, novel anhydrous crystalline polymorph of Ceftiofur sodium (Form A) of formula (I) having the following X-ray diffraction characteristic peaks (±0.2°2θ): 5.68, 6.54, 8.84, 12.82, 13.16, 16.33, 17.36, 18.71, 18.94, 20.25, 21.53, 22.11, 22.79, 24.44, 24.88, 25.46, and 27.00 in °2θ. The anhydrous crystalline Ceftiofur sodium of the present invention has moisture content in the range of 0.4 to 2.0%. The anhydrous Ceftiofur sodium (Form A) is prepared by drying the Ceftiofur sodium either under vacuum or under normal pressure at a temperature in the range of 60-125° C. till the moisture content reaches 0.4 to 2.0%. The moisture content of Ceftiofur sodium is measured by using Karl-Fisher technique. The following tables (Table 2 & 3) provide stability data of anhydrous crystalline Ceftiofur Sodium (Form A) prepared according to this invention. From this table it is evident that the anhydrous crystalline Ceftiofur Sodium prepared according this invention is very stable and highly pure, which is clearly indicated by total RS (Related substances) analysis & the stability data.

Data set [5] can be described thus: Stability at 40 ± 2° C. & 75 ± 5% RH. The format is physicochemical. The note with it: for Assay: in % (unit assumed). Here is the method: as §1

On to `CO/N=C(\C(=O)N[C@@H]1C(=O)N2C(C(=O)[O-])=C(CSC(=O)c3ccco3)CS[C@H]12)c1csc(N)n1.[Na+]` [Amorphous, Ceftiofur sodium, reference compound], for which the Stability result in data set [1] (listed as amorphous Ceftiofur sodium) was “less stable”. Further, the “Nature (hygroscopicity)” value in data set [2] (listed as conventional amorphous Ceftiofur sodium) is reported as “highly hygroscopic”. For the same compound, in data set [3], the “Tapped Bulk density” value worked out at 0.5 g/mL.

Consider `CO/N=C(\C(=O)N[C@@H]1C(=O)N2C(C(=O)[O-])=C(CSC(=O)c3ccco3)CS[C@H]12)c1csc(N)n1.[Na+]` [Form A, Ceftiofur sodium], for which the Stability result in data set [1] is “good”. For the same compound, the Moisture Content was 1.05% in data set [4] (3 Months); 1.11% in data set [4] (6 month); 1.05% in data set [4] (Initial); 1.08% in data set [5] (3 Months); 1.54% in data set [5] (6 month); 1.05% in data set [5] (Initial). Also, the Total RS (Related substances) in data set [4] (3 Months) came to 0.16%; in data set [4] (6 month) it was 0.21%; in data set [4] (Initial), 0.15%; in data set [5] (3 Months) it was 0.19%; in data set [5] (6 month) it was 0.33%; in data set [5] (Initial), 0.15%. Moreover, the Assay in data set [4] (3 Months) came out at 98.84; in data set [4] (6 month), 99.47; in data set [4] (Initial), 99.74; in data set [5] (3 Months), 98.14; in data set [5] (6 month), 98.64; in data set [5] (Initial), 99.74. Moreover, the results for the “Nature (hygroscopicity)” value in data set [2] and in data set [2] (listed as anhydrous crystalline Ceftiofur sodium) were “Non-Hygroscopic” and “non-hygroscopic”, respectively. Also, the “Tapped Bulk density” value in data set [3] came out at 0.7 g/mL.

These data come from patent publication US20110136777A1, “CRYSTALLINE SODIUM SALT OF CEPHALOSPORIN ANTIBIOTIC” (Orchid Chemicals and Pharmaceuticals Limited, priority 2008, published 2011).
